IC50 data for two molecules are collected here from ChEMBL document CHEMBL3046784, “Exploring QSAR of antiamoebic agents of isolated natural products by MLR, ANN, and RTO” (Med Chem Res, 2012).

For the test, the system named is Entamoeba histolytica. In words: Antiamoebic activity against Entamoeba histolytica. The test is classed as functional, organism-based. To be noted: Entamoeba histolytica; read-out: IC50.

≈ marks a conversion by molar mass, not a printed value.

A word on the IC50: it is the concentration that gives 50% inhibition. As for `COc1c(OC)c(O)c2c(=O)cc(-c3ccc(O)cc3)oc2c1OC` [XANTHOMICROL], the half-maximal inhibitory concentration (IC50) turned out to be 275 µg/mL (≈ 798 µM). With `COC(=O)[C@]12OC[C@]34[C@H]([C@@H](O)[C@@H]1O)[C@@]1(C)C=C(O[C@@H]5O[C@H](CO)[C@@H](O)[C@H](O)[C@H]5O)C(=O)[C@@H](C)[C@@H]1C[C@H]3OC(=O)[C@H](OC(C)=O)[C@@H]24` [YADANZIOSIDE F] the figure was 2.33 µg/mL (≈ 3.63 µM).
